Reference: ChEMBL document CHEMBL1201862, “PubChem BioAssay data set” (2004)
Several values for one entry are separate records, joined by “and”; a condition that tells them apart may be missing. Equal values may be shown once. Activity calls are given as the source filed them.

Legend:
[1] = intracellular Trypanosoma cruzi inhibitors in host cells – cell-based, plate reader, cherry-pick samples, set 3, dose response (AID 651818); type: functional;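 also: compounds incubated with infected cells for about four days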
[2] = biological target: T1, Cytochrome P450 3A4 (Homo sapiens, UniProt P08684); conditions: Potency
[3] = A cytotoxicity screen of small molecule inhibitors of the PhoP region in Salmonella typhi identified in the primary screen. [Related pubchem assays: 1850, 1864, 1985 ]; type: functional
[4] = biological target: T1, Cytochrome P450 3A4
[5] = biological target: T2, Leucine aminopeptidase (Plasmodium falciparum 3D7, UniProt Q8IL11); experiment: P. falciparum M17LAP inhibitors, primary screen, biochemical, fluorogenic H-Leu-NHMec substrate, 1536-well (AID 1619); type: functional
T2 sequence (Q8IL11 whole entry): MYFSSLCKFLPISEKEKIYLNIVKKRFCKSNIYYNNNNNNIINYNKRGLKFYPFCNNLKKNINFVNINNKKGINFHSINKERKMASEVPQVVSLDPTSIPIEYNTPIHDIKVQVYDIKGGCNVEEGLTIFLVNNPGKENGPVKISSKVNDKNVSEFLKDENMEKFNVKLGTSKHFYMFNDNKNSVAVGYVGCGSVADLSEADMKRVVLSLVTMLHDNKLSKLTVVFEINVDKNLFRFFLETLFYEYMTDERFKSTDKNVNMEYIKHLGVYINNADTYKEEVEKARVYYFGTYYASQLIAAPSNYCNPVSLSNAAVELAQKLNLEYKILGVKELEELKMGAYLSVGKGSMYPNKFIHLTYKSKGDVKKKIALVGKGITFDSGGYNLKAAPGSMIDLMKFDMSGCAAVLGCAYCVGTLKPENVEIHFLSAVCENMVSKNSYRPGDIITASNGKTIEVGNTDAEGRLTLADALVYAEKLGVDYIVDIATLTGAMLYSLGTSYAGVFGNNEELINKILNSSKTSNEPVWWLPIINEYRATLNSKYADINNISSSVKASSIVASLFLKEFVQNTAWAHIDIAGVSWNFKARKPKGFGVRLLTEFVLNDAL

[6] = biological target: T3, Replicative DNA helicase DnaB (Mycobacterium tuberculosis, UniProt P9WMR3); experiment: DnaB intein splicing inhibitors, dose response, biochemical, cell-free fluorescence (AID 449749); type: functional
T3 sequence (P9WMR3 whole entry): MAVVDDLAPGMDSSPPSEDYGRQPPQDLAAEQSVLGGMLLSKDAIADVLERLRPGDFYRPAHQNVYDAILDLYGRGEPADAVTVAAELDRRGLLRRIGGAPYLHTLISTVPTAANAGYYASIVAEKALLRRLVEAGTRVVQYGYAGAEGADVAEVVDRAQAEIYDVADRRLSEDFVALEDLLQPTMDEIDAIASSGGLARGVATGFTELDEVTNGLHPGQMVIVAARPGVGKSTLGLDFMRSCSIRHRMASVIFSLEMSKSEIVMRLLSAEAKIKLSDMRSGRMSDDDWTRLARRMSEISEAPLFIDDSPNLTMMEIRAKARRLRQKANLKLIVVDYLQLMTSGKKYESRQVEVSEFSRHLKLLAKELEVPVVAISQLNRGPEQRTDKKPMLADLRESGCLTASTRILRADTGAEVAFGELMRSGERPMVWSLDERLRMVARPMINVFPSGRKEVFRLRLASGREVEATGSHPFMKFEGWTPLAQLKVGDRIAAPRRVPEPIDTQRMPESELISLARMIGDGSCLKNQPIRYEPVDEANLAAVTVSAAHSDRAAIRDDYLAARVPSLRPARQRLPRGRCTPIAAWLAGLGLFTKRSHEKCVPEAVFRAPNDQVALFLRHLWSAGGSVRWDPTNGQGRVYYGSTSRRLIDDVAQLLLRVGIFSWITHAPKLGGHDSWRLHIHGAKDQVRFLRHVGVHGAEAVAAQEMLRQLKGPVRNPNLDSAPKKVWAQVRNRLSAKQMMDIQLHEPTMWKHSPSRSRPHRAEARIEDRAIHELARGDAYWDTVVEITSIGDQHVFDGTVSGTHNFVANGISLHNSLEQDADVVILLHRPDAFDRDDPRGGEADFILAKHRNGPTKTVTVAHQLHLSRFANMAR

[7] = biological target: T4, Protein RecA (Mycobacterium tuberculosis, UniProt P9WHJ3); experiment: Fluorescence Cell-Free Homogeneous Dose Retest to Identify Inhibitors of RecA-Intein Splicing Activity. [Related pubchem assays (depositor defined):AID2097, AID2223, AID489010, AID492950]; type: functional
T4 sequence (P9WHJ3 whole entry): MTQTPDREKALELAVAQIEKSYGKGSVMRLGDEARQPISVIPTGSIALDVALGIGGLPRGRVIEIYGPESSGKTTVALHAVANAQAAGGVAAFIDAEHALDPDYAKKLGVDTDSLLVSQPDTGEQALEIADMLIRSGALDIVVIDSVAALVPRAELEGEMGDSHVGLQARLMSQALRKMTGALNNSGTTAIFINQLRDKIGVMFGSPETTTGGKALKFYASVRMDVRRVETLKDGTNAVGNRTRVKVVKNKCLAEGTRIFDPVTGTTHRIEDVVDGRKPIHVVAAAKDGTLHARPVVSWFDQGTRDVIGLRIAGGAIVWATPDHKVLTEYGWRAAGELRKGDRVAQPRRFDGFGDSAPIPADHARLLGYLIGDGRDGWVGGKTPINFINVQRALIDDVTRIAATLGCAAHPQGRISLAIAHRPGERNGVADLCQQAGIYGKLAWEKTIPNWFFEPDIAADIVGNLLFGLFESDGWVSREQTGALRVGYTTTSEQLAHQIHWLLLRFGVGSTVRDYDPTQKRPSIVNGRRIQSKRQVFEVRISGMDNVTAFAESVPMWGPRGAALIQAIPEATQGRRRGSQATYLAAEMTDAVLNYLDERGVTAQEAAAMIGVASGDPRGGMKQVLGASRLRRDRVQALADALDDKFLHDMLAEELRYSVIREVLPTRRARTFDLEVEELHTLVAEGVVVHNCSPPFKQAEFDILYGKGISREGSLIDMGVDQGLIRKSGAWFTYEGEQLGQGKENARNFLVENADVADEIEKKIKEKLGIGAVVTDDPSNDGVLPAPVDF

[8] = biological target: Large T antigen (Simian virus 40, UniProt P03070); type: functional, Betapolyomavirus macacae;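 also: Confirmatory-stage PubChem screen for compounds that inhibit SV40 T antigen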
[9] = biological target: FAD-linked sulfhydryl oxidase ALR (Homo sapiens, UniProt P55789); experiment: inhibitors of human ALR sulfhydryl oxidase, dose response, biochemical, H2O2 detection, luminescence, cherry-pick (AID 493248)
[10] = biological target: Paired box protein Pax-8 (Homo sapiens, UniProt Q06710); experiment: inhibitors of PAX8-driven TPO luciferase reporter, dose response, RMG-I cells, cherry-pick (AID 687027); type: functional, cell-based;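 also: luciferase reporter driven by Pax8 target thyroperoxidase promoter measured by SteadyGlo luminescence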
[11] = NIH:OVCAR-3 ovarian cancer cell cytotoxicity, dose response, PAX8 inhibitor project, plate reader, dry powder samples (AID 743044); type: functional, cell-based
[12] = cytotoxicity in OVCAR8 ovarian cancer cells, dose response, PAX8 project, cell-based, plate reader, dry powder samples (AID 743197); type: functional; conditions: OVCAR-8
[13] = cells; type: functional, cell-based
[14] = cells; type: functional, cell-based; remark: listed apart in the source

T1 sequence (P08684 whole entry): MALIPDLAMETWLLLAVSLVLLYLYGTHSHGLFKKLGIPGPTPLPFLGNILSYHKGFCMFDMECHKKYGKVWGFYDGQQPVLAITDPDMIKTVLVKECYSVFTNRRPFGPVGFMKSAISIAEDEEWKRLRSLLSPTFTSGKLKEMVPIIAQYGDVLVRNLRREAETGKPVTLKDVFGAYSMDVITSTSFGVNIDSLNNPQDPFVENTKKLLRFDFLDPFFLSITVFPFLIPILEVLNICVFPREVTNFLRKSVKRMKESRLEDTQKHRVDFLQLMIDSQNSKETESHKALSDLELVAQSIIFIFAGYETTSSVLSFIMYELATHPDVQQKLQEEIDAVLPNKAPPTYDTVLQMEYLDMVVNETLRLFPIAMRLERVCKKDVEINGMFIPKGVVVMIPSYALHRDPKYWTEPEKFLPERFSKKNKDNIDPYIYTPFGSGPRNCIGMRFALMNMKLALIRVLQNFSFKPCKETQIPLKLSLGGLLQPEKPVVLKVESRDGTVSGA
FAD-linked sulfhydryl oxidase ALR, sequence (P55789 whole entry): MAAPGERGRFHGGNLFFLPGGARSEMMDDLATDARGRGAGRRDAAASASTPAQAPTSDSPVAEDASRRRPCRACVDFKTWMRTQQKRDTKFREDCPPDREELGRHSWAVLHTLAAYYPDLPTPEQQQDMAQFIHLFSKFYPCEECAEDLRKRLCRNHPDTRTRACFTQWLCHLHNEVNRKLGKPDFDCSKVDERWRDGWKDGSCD
Large T antigen, sequence (P03070 whole entry): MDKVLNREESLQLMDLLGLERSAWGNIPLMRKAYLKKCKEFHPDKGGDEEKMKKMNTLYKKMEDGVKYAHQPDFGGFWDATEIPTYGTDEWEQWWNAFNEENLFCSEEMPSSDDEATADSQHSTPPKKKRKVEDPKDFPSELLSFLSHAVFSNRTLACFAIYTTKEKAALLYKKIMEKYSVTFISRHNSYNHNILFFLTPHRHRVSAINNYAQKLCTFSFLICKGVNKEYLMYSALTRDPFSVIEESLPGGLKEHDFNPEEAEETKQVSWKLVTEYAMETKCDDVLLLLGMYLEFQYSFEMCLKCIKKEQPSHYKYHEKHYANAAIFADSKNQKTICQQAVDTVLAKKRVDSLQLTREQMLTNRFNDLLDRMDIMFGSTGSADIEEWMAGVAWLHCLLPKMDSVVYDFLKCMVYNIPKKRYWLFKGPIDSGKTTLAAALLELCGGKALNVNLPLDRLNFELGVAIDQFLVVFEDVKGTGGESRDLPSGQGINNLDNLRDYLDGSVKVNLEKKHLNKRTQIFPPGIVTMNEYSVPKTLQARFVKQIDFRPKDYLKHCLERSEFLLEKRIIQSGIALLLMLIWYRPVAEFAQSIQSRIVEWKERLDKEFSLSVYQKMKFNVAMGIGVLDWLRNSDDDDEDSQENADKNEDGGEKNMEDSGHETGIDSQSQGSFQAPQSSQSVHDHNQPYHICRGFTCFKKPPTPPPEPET
Paired box protein Pax-8, sequence (Q06710 whole entry): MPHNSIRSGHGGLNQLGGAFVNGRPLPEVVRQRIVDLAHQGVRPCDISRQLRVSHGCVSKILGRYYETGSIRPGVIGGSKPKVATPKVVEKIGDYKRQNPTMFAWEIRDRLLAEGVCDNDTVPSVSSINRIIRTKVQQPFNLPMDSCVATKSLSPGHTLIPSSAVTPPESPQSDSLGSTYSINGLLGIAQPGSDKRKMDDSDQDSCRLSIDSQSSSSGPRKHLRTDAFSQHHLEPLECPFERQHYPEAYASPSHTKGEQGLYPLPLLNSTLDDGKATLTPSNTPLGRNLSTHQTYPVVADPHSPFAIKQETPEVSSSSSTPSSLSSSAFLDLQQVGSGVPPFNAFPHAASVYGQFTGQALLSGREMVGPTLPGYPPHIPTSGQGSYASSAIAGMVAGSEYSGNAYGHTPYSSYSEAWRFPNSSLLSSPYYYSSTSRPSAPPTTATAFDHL

**Q.** Which AC50 [1] does the source give for `C[C@H](CO)N1C[C@H](C)[C@H](CN(C)C(=O)Nc2ccc(C(F)(F)F)cc2)Oc2c(NC(=O)Nc3ccc(C(F)(F)F)cc3)cccc2C1=O` here?
**A.** Its AC50 is 6.56 µM (active).

**Q.** For `CCCCNc1nc(C)nc2c1nc(-c1ccccc1)n2CCCN(C)C`, which AC50 [2] is on record?
**A.** The AC50 was 15.8 µM (inconclusive).

**Q.** For `O=C1CC(c2ccccc2O)Oc2ccc(O)cc21` (stereo not given), which AC50 [2] is on record?
**A.** Its AC50 is 25.1 µM (inconclusive).

**Q.** Which EC50 [3] does the source give for `COc1ccc(NS(=O)(=O)c2cccc(NC(=O)c3ccccn3)c2)cc1` here?
**A.** The EC50 was > 50 µM (active).

**Q.** For `CC(=O)c1cccc(NC(=O)CCC2CCCC2)c1`, which EC50 [3] is on record?
**A.** The EC50 was > 50 µM (active).

**Q.** And the AC50 [4]?
**A.** Its AC50 is 28.2 µM (inconclusive).

**Q.** Which AC50 [2] does the source give for `COCCN(CCOC)c1nc(C)nc2c1nc(-c1ccccc1)n2CC1CCN(C)CC1` here?
**A.** Its AC50 is 15.8 µM (inconclusive).

**Q.** What does the source list for `O=C(Cc1cc(O)n[nH]1)N/N=C/c1c(Cl)cccc1Cl`?
**A.** IC50 [5]: 49.9 µM (active); AC50 [6]: 2.66 µM (active) and 7.7 µM (active); EC50 [7]: 6.26 µM (inconclusive) and 1.51 µM (active)

**Q.** With `C/C(=N/NC(=O)Cc1c(C)n[nH]c1O)c1ccc(O)cc1` as the compound, how does the IC50 [5] read?
**A.** Its IC50 is 4.09 µM (active).

**Q.** What about the IC50 [8] of the same compound?
**A.** Its IC50 is 31.4 µM (active).

**Q.** What about the AC50 [9] of the same compound?
**A.** The AC50 was 1.49 µM (active).

**Q.** What does the source list for `C[C@@H]1CN([C@H](C)CO)C(=O)c2cc(NS(=O)(=O)c3ccccc3)ccc2O[C@@H](C)CCCCO[C@@H]1CN(C)CC1CCCCC1`?
**A.** AC50 [10]: 19.6 µM (active); AC50 [11]: 53.9 µM (active); AC50 [12]: 68 µM (active)

**Q.** For `Cc1ccc(-n2c(C)cc(C(=O)NS(=O)(=O)c3ccc(C)cc3)c2C)cc1`, which IC50 [5] is on record?
**A.** Its IC50 is 25.4 µM (active).

**Q.** What does the source list for `O=C(O)C1CC=CCC1C(=O)NCCc1ccccc1` (stereo not given)?
**A.** IC50 [13]: > 29.9 µM (inactive); EC50 [14]: > 29.9 µM (inactive)

**Q.** With `C[C@@H]1CN([C@H](C)CO)C(=O)Cc2cc(NC(=O)NC3CCCCC3)ccc2O[C@H]1CN(C)Cc1ccc(-c2ccccc2)cc1` as the compound, how does the AC50 [1] read?
**A.** The AC50 was 4.51 µM (active).
